Measurements: patent US20180160709A1, “bitter taste removing preparation and method” (priority 2016, published 2018)

Experiment: In vitro membrane dialysis: bonding between bitter ingredients and proteins
Assay type: binding
Conditions: among whey protein, milk powder, chicken ovalbumin, bovine serum albumin
Experimental: The possible hydrophobic bonding between bitter ingredients RO and protein molecules can be explored by using membrane dialysis:
Dialysis bag was purchased from Beijing Scientan science and technology company, molecular weight range 8-14 KD. The bag was immersed in 10 mL water in a beaker. The pore size on the membrane inhibited the protein molecules from penetrating.
Into the first group (control samples) bags added in the sophora flavescens, gentian, and scutellaria decoctions and Berberine in aqueous solution respectively, 0.2 mL each, and diluted with water to 2 mL total volume each. To simulate the Chinese medicine, in the 4 medicine decoctions used as sample and control sample, there was no additive and without any post processing.
In the second group of 4×5 bags, four different protein powders were added respectively: whey protein, milk powder, chicken ovalbumin, bovine serum albumin, 5 bags for each protein, 400 mg powder in each bag. As the last step of sample preparation, 2 mL of 1/10 diluted decoction solutions were added into the protein bags, 4 different protein bags for each medicine decoction to add in. Into the remaining set of 4 different protein bags from above, 2 ml water was added instead without any medicine decoction. […]
Scheduled sampling from the 10 mL water outside the bag, and followed by HPLC quantitative analysis. […]

bovine serum albumin: protein powder, 400 mg per dialysis bag
encapsulation or hydrophobic bonding ability: strongest
